Broadly, the inhibition is the relative decrease from the control value, in per cent. By IC50 is commonly meant the point on the concentration scale where inhibition reaches its midpoint.

The subject of data set [1] is T. cruzi intracellular amastigotes. The data set can be described thus: Image-based assay of the number of T. cruzi infected cells (intracellular amastigotes in 3T3 host cells). The data set is classed as cell-based, Trypanosoma cruzi. The note with it: for IC50: highest test concentration 183 μM.
The test system of the next data set is 3T3 cells. The data set can be described thus: Image-based assay, effect on 3T3 host cells. The data set is classed as cell-based.
For data set [2], the system named is HEK293 cells. The data set can be described thus: Redox-based assay to assess HEK293 viability. The class given is cell-based, human. The note with it: Homo sapiens, HEK293, 48 hours exposure. How it is done: To determine the effect of the nucleoside analogues against a replicating mammalian cell line, analogues were tested against HEK293 cells, utilising a REDOX-based metabolic assay to assess cell viability as previously described. […] Experiments were performed over two biological replicates.

The test system of data set [3] is T. cruzi intracellular amastigotes. The data set can be described thus: Image-based assay of the number of T. cruzi infected cells (intracellular amastigotes in 3T3 host cells). The class given is cell-based, Trypanosoma cruzi. The note with it: 2 and 4 hour exposures; 73 μM.
Another data set deals with L. donovani. On the set-up: method as in PMID 27021313. The note with it: 72 hours incubation; cited from earlier work.
For data set [4], the system named is HEK293 cells. The note with it: read-out: IC50 value, cytotoxicity against HEK293 cells; 72 hours exposure; cited from earlier work.

Like-named read-outs stand apart in the source and are kept apart here. Some results are limits rather than exact numbers.

With `C#Cc1cn([C@H]2C[C@H](O)[C@@H](CO)O2)c(=O)[nH]c1=O` [EdU, 5-ethynyl-2′-deoxy-uridine], the “SI (selectivity index to T. cruzi intracellular amastigotes in relation to HEK293 cells)” value in data set [1] (48 hours exposure) was 17. Further, in data set [1] (Trypanosoma cruzi, 48 h, 0.018 μM, 48 hours, read-out: inhibition of T. cruzi growth), the inhibition at 0.018 µM worked out at 63 ± 19%. In addition, the inhibition at 0.037 µM in data set [1] (Trypanosoma cruzi, 48 h, 0.037 μM, 48 hours, read-out: inhibition of T. cruzi growth) came out at 51 ± 13%. Also, the IC50 in data set [1] (Trypanosoma cruzi, 24 hours exposure, read-out: T. cruzi 24 IC50 value) is 73 ± 49 nM; in data set [1] (Trypanosoma cruzi, 48 hours incubation, compound wash off, further 72 hours without compound, read-out: T. cruzi Wash off IC50 value), 420 ± 61 nM; in data set [1] (Trypanosoma cruzi, 48 hours incubation, read-out: T. cruzi 48 IC50 value), 40 ± 25 nM; in the data set on HEK293 cells [2] (highest test concentration 87 μM, EdU value estimated, relative to Emax plateau of 57%) it was 670 ± 260 nM; in the data set on HEK293 cells [4] it was 60 ± 43 nM. In addition, the Emax in data set [1] (Trypanosoma cruzi, 24 hours exposure, read-out: T. cruzi 24 relative Emax (in brackets) (converted)) is 83%; in data set [1] (Trypanosoma cruzi, 48 hours incubation, wash off, further 72 hours without compound, read-out: T. cruzi Wash off relative Emax (in brackets) (converted)), 99%; in data set [1] (Trypanosoma cruzi, 48 hours incubation, read-out: T. cruzi 48 relative Emax (in brackets) (converted)) it was 98%; with HEK293 cells [2] (read-out: plateau of activity (Emax) against HEK293 cells) it was 57%. Further, the “activity against host cells after short exposure” value with 3T3 cells (2 and 4 hour exposures, 73 μM) is “less than 20%”. In the data set on 3T3 cells (48 h, highest test concentration 183 μM), the “Host cell 3T3 IC50 value 48 h” value was “NA (NA = ≤50% activity at the highest concentration tested and an IC50 value could not be determined)”. Further, the “activity against 3T3 cells in the image-based assay” value in the data set on 3T3 cells (48 hours) is on record as below 20%. Besides, the “activity against T. cruzi amastigote growth after short exposure” value in data set [3] was “less than 20%”. Moreover, in the data set with L. donovani, the “toxicity toward L. donovani” value is listed as “lack of toxicity”.

The record behind these values is paper PMC7112222, “Investigation of pyrimidine nucleoside analogues as chemical probes to assess compound effects on the proliferation of Trypanosoma cruzi intracellular parasites” (PLoS Neglected Tropical Diseases, 2020).
